Patent publication US20120178915A1, “PYRIMIDINE DERIVATIVES AND ANALOGS, PREPARATION METHOD AND USE THEREOF” (priority 2009, published 2012)
Values after ≈ are worked out from the molar mass of the structure shown. Like-named read-outs stand apart in the source and are kept apart here.

Assays:
Bacillus cereus 2 = experiment: microbe, parasite or virus in culture; assay type: cell-based; conditions: 37° C., 24 h, read-out: Minimum Inhibitory Concentration, MIC
Bacillus cereus 246 = experiment: microbe, parasite or virus in culture; assay type: cell-based; conditions: 37° C., 24 h, read-out: Minimum Inhibitory Concentration, MIC
Bacillus subtilis 82 = experiment: microbe, parasite or virus in culture; assay type: cell-based; conditions: 37° C., 24 h, read-out: Minimum Inhibitory Concentration, MIC
Bacillus subtilis 168 = experiment: microbe, parasite or virus in culture; assay type: cell-based; conditions: 37° C., 24 h, read-out: Minimum Inhibitory Concentration, MIC
[1] = tested on: Enterococcus faecalis 29212; experiment: microbe, parasite or virus in culture; assay type: cell-based; conditions: 37° C., 24 h, read-out: Minimum Inhibitory Concentration, MIC
[2] = tested on: Enterococcus faecalis 51299; experiment: microbe, parasite or virus in culture; assay type: cell-based; conditions: Enterococcus faecalis, 51299, 24 h, read-out: Minimum Inhibitory Concentration, MIC
[3] = tested on: Enterococcus faecalis 19433; experiment: microbe, parasite or virus in culture; assay type: cell-based; conditions: 37° C., 24 h, read-out: Minimum Inhibitory Concentration, MIC
[4] = tested on: Enterococcus faecalis F2518 (VRE); experiment: microbe, parasite or virus in culture; assay type: cell-based; conditions: 24 h, read-out: Minimum Inhibitory Concentration, MIC
[5] = tested on: Enterococcus fecal F631 (VRE); experiment: organism not typed; assay type: cell-based; conditions: 24 h, read-out: Minimum Inhibitory Concentration, MIC
[6] = tested on: Enterococcus faecalis 1513 (VRE); experiment: microbe, parasite or virus in culture; assay type: cell-based; conditions: 24 h, read-out: Minimum Inhibitory Concentration, MIC
[7] = tested on: Enterococcus faecalis 583 (VRE); experiment: microbe, parasite or virus in culture; assay type: cell-based; conditions: 24 h, read-out: Minimum Inhibitory Concentration, MIC
[8] = tested on: Staphylococcus aureus 29231; experiment: microbe, parasite or virus in culture; assay type: cell-based; conditions: 37° C., 24 h, read-out: Minimum Inhibitory Concentration, MIC
[9] = tested on: Staphylococcus aureus 43300 (MRSA); experiment: microbe, parasite or virus in culture; assay type: cell-based; conditions: 24 h, read-out: Minimum Inhibitory Concentration, MIC
[10] = tested on: Staphylococcus aureus 703 (MRSA); experiment: microbe, parasite or virus in culture; assay type: cell-based; conditions: 24 h, read-out: Minimum Inhibitory Concentration, MIC
[11] = tested on: Staphylococcus aureus 704 (MRSA); experiment: microbe, parasite or virus in culture; assay type: cell-based; conditions: 24 h, read-out: Minimum Inhibitory Concentration, MIC
[12] = tested on: Staphylococcus aureus 705 (MRSA); experiment: microbe, parasite or virus in culture; assay type: cell-based; conditions: 24 h, read-out: Minimum Inhibitory Concentration, MIC
[13] = tested on: Streptococcus pneumoniae 6303 (PRSP); experiment: microbe, parasite or virus in culture; assay type: cell-based; conditions: 24 h, read-out: Minimum Inhibitory Concentration, MIC
[14] = tested on: Streptococcus pneumoniae 62; experiment: microbe, parasite or virus in culture; assay type: cell-based; conditions: 37° C., 24 h, read-out: Minimum Inhibitory Concentration, MIC
[15] = tested on: Streptococcus pneumoniae 6301; experiment: microbe, parasite or virus in culture; assay type: cell-based; conditions: 37° C., 24 h, read-out: Minimum Inhibitory Concentration, MIC
[16] = tested on: Streptococcus pneumoniae M2; experiment: microbe, parasite or virus in culture; assay type: cell-based; conditions: 37° C., 24 h, read-out: Minimum Inhibitory Concentration, MIC
Pyogenic Streptococcus = experiment: microbe, parasite or virus in culture; assay type: cell-based; conditions: 37° C., 24 h, read-out: Minimum Inhibitory Concentration, MIC
[17] = tested on: Streptococcus agalactiae B; experiment: microbe, parasite or virus in culture; assay type: cell-based; conditions: 37° C., 24 h, read-out: Minimum Inhibitory Concentration, MIC
green Streptococcus 1009 = experiment: microbe, parasite or virus in culture; assay type: cell-based; conditions: 37° C., 24 h, read-out: Minimum Inhibitory Concentration, MIC
[18] = tested on: Streptococcus bovis 10035; experiment: microbe, parasite or virus in culture; assay type: cell-based; conditions: Streptococcus equinus, 37° C., 24 h, read-out: Minimum Inhibitory Concentration, MIC
Streptococcus 10342 = experiment: MIC broth microdilution; assay type: cell-based; conditions: 37° C., 24 h, read-out: Minimum Inhibitory Concentration, MIC
[19] = tested on: Streptococcus pneumoniae 10351; experiment: microbe, parasite or virus in culture; assay type: cell-based; conditions: 37° C., 24 h, read-out: Minimum Inhibitory Concentration, MIC
Bacillus anthracis 1 = experiment: microbe, parasite or virus in culture; assay type: cell-based; conditions: Bacillus anthracis, 1, 24 h, read-out: Minimum Inhibitory Concentration, MIC
[20] = tested on: Corynebacterium diphtheriae; experiment: microbe, parasite or virus in culture; assay type: cell-based; conditions: 37° C., 24 h, read-out: Minimum Inhibitory Concentration, MIC
Clostridium tetani = experiment: microbe, parasite or virus in culture; assay type: cell-based; conditions: 24 h
Clostridium perfringens = experiment: microbe, parasite or virus in culture; assay type: cell-based; conditions: 24 h, read-out: Minimum Inhibitory Concentration, MIC
Oral candidiasis = experiment: MIC broth microdilution; assay type: cell-based; conditions: Microorganism 32, Oral candidiasis; 37° C., 24 h; read-out: Minimum Inhibitory Concentration, MIC
MIC broth microdilution = assay type: cell-based; conditions: Microorganism 33, Dermatophytosis; 37° C., 24 h; read-out: Minimum Inhibitory Concentration, MIC
MRSA 2152 = experiment: Antibacterial studies in vivo, survival of mice infected with MRSA 2152; conditions: dose mg/kg: ciprofloxacin 20, 3: 30, 7: 40, 21: 50, 33: 25, 70: 70
Gram-positive Bacteria = assay type: cell-based; conditions: Enterococcus faecalis (VRE), Staphylococcus aureus (MRSA), Streptococcus pneumoniae 6303 (PRSP); Bacillus cereus, Bacillus subtilis, Enterococcus faecalis, Staphylococcus aureus, Streptococcus pneumoniae, Streptococcus agalactiae B and streptococci 4
[21] = read-out: Minimum Inhibitory Concentration, MIC, Microorganism 29, Clostridium tetani, 37° C.
[22] = read-out: Minimum Inhibitory Concentration, MIC, Microorganism 30, Clostridium tetani (second line of that name), 37° C.

`Cc1nn2c(=O)c(C)c(-c3ccc(C#N)cc3)[nH]c2c1-c1ccc(C(F)(F)F)cc1` [Compound 33] gave an MIC (Bacillus cereus 2) of 1.25 µM (≈ 0.51 µg/mL), an MIC (Bacillus cereus 246) of 1.25 µM (≈ 0.51 µg/mL) and an MIC (Bacillus subtilis 82) of 0.31 µM (≈ 0.127 µg/mL). The MIC (Bacillus subtilis 168) was 1.25 µM (≈ 0.51 µg/mL), the MIC [1] was 2.5 µM (≈ 1.02 µg/mL) and the MIC [2] was 2.5 µM (≈ 1.02 µg/mL). For the same compound, the MIC [3] was 5 µM (≈ 2.04 µg/mL), the MIC [4] was 2.5 µM (≈ 1.02 µg/mL) and the MIC [5] was 0.63 µM (≈ 0.257 µg/mL). The MIC [6] was 5 µM (≈ 2.04 µg/mL), the MIC [7] was 2.5 µM (≈ 1.02 µg/mL) and the MIC [8] was 0.63 µM (≈ 0.257 µg/mL). For the same compound, the MIC [9] was 0.55 µM (≈ 0.225 µg/mL), the MIC [10] was 0.42 µM (≈ 0.172 µg/mL) and the MIC [11] was 0.28 µM (≈ 0.114 µg/mL). The MIC [12] was 0.33 µM (≈ 0.135 µg/mL), the MIC [13] was 1.3 µM (≈ 0.531 µg/mL) and the MIC [14] was 0.63 µM (≈ 0.257 µg/mL). It also gave an MIC [15] of 2.5 µM (≈ 1.02 µg/mL), an MIC [16] of 1.25 µM (≈ 0.51 µg/mL) and an MIC (Pyogenic Streptococcus) of 0.63 µM (≈ 0.257 µg/mL). It also gave an MIC [17] of 0.56 µM (≈ 0.229 µg/mL), an MIC (green Streptococcus 1009) of 0.3 µM (≈ 0.123 µg/mL) and an MIC [18] of 10.5 µM (≈ 4.29 µg/mL). It also gave an MIC (Streptococcus 10342) of 0.3 µM (≈ 0.123 µg/mL), an MIC [19] of 0.04 µM (≈ 0.0163 µg/mL) and an MIC (Bacillus anthracis 1) of 35.6 µM (≈ 14.5 µg/mL). It also gave an MIC [20] of 80.3 µM (≈ 32.8 µg/mL), an MIC (Clostridium tetani; [21]) of 60.3 µM (≈ 24.6 µg/mL) and an MIC (Clostridium tetani; [22]) of 50.6 µM (≈ 20.7 µg/mL). It also gave an MIC (Clostridium perfringens) of 31.2 µM (≈ 12.7 µg/mL), an MIC (Oral candidiasis) of 126 µM (≈ 51.3 µg/mL) and an MIC (MIC broth microdilution) of 53.6 µM (≈ 21.9 µg/mL). For the same compound, the “Survival rate (%) (life prolongation rate)” value (MRSA 2152; (survival days of test group − blank group)/blank group ×100%, MRSA 2152 mice, tail vein) was 169.2% and the “Survival” value (MRSA 2152; mice inoculated intraperitoneally with MRSA 2152, test compound by tail vein, repeated after six hours, saline 1.3 days) was 3.5 days.
In the case of `Cc1nn2c(=O)cc(-c3ccc(C#N)cc3)[nH]c2c1-c1ccc(Cl)cc1Cl` [Compound 10], the “inhibition of growth (conclusion from MICs)” value (Gram-positive Bacteria) is reported as “significantly inhibited the growth”, the MIC (Bacillus cereus 2) is reported as 0.31 µM (≈ 0.123 µg/mL) and the MIC (Bacillus cereus 246) is reported as 1.32 µM (≈ 0.522 µg/mL). The MIC (Bacillus subtilis 82) was 0.63 µM (≈ 0.249 µg/mL), the MIC (Bacillus subtilis 168) was 0.63 µM (≈ 0.249 µg/mL) and the MIC [1] was 1.25 µM (≈ 0.494 µg/mL). It also gave an MIC [2] of 2.3 µM (≈ 0.909 µg/mL), an MIC [3] of 0.02 µM (≈ 0.0079 µg/mL) and an MIC [4] of 0.31 µM (≈ 0.123 µg/mL). For the same compound, the MIC [5] was 0.56 µM (≈ 0.221 µg/mL), the MIC [6] was 0.61 µM (≈ 0.241 µg/mL) and the MIC [7] was 0.99 µM (≈ 0.391 µg/mL). The MIC [8] was 0.63 µM (≈ 0.249 µg/mL), the MIC [9] was 1.23 µM (≈ 0.486 µg/mL) and the MIC [10] was 0.34 µM (≈ 0.134 µg/mL). It also gave an MIC [11] of 0.23 µM (≈ 0.0909 µg/mL), an MIC [12] of 0.31 µM (≈ 0.123 µg/mL) and an MIC [13] of 0.04 µM (≈ 0.0158 µg/mL). It also gave an MIC [14] of 0.25 µM (≈ 0.0988 µg/mL), an MIC [15] of 0.16 µM (≈ 0.0632 µg/mL) and an MIC [16] of 0.31 µM (≈ 0.123 µg/mL). The MIC (Pyogenic Streptococcus) was 2.5 µM (≈ 0.988 µg/mL), the MIC [17] was 5 µM (≈ 1.98 µg/mL) and the MIC (green Streptococcus 1009) was 1.45 µM (≈ 0.573 µg/mL). For the same compound, the MIC [18] was 1.05 µM (≈ 0.415 µg/mL), the MIC (Streptococcus 10342) was 1.15 µM (≈ 0.455 µg/mL) and the MIC [19] was 1.35 µM (≈ 0.534 µg/mL). For the same compound, the MIC (Bacillus anthracis 1) was 35.6 µM (≈ 14.1 µg/mL), the MIC [20] was 70.3 µM (≈ 27.8 µg/mL) and the MIC (Clostridium tetani; [21]) was 60.3 µM (≈ 23.8 µg/mL). It also gave an MIC (Clostridium tetani; [22]) of 20.3 µM (≈ 8.02 µg/mL), an MIC (Clostridium perfringens) of 25.1 µM (≈ 9.92 µg/mL) and an MIC (Oral candidiasis) of 99.2 µM (≈ 39.2 µg/mL). It also gave an MIC (MIC broth microdilution) of 55.9 µM (≈ 22.1 µg/mL).
